Reference: PMC12155096 (International Journal of Molecular Sciences, 2025)
Where a name gives a salt, the structure may show the parent alone. Read-outs that look alike come from different tables or passages of the source.

How the values were obtained:
human CYP2C19 [1] = target: T1, human CYP2C19 (Homo sapiens, UniProt P33261); experiment: biochemical
human CYP2D6 [2] = target: T2, human CYP2D6 (Homo sapiens, UniProt P10635); experiment: biochemical
human CYP2C9 [3] = target: T3, human CYP2C9 (Homo sapiens, UniProt P11712); conditions: for CYP2C9 Efficacy (in parenthesis): human
CYP3A4 = CYP3A4 (Homo sapiens, UniProt P08684)
human CYP1A2 [4] = target: T4, human CYP1A2 (Homo sapiens, UniProt P05177); conditions: human
T4 sequence (P05177 1-516): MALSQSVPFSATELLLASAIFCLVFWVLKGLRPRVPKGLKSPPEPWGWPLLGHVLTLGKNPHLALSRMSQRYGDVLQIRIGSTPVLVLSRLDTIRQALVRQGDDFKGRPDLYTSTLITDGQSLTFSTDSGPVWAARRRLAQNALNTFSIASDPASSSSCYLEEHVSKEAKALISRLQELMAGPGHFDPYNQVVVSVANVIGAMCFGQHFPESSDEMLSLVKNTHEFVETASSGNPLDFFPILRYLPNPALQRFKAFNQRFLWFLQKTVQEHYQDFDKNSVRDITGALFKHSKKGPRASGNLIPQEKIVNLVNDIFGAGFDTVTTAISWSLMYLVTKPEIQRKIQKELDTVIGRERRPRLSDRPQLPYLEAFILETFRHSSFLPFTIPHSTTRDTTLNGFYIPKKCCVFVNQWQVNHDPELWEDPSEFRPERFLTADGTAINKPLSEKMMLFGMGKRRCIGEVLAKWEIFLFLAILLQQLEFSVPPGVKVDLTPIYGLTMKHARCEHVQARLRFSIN

human CYP2C19 [5] = target: T1, human CYP2C19; conditions: for CYP2C19 Efficacy (in parenthesis): human
[6] = target: Photinus pyralis (firefly) luciferase (Photinus pyralis, UniProt P08659); experiment: biochemical; assay type: biochemical
human CYP1A2 [7] = target: T4, human CYP1A2; experiment: biochemical
human CYP2D6 [8] = target: T2, human CYP2D6; conditions: human
human CYP2C9 [9] = target: T3, human CYP2C9; experiment: biochemical
[10] = CYP2C19 IC50 (half-maximal inhibitory concentration)
[11] = CYP2D6 IC50 (half-maximal inhibitory concentration)
[12] = CYP1A2 IC50 (half-maximal inhibitory concentration)
[13] = CYP2C9 IC50 (half-maximal inhibitory concentration)

CYP3A4, sequence (P08684 whole entry): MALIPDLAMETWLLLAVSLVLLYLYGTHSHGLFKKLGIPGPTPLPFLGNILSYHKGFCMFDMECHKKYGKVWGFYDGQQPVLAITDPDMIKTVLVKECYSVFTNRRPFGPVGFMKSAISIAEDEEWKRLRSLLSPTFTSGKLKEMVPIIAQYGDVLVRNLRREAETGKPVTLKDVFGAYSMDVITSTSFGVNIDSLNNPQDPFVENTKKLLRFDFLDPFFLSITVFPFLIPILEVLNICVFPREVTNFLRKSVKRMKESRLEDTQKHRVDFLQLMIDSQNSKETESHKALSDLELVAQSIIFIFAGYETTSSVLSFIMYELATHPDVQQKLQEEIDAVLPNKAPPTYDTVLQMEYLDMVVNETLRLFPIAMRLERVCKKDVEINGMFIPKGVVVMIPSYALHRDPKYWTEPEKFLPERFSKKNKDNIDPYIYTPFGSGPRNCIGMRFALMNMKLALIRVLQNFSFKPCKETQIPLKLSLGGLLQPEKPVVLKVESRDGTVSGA
T1 sequence (P33261 whole entry): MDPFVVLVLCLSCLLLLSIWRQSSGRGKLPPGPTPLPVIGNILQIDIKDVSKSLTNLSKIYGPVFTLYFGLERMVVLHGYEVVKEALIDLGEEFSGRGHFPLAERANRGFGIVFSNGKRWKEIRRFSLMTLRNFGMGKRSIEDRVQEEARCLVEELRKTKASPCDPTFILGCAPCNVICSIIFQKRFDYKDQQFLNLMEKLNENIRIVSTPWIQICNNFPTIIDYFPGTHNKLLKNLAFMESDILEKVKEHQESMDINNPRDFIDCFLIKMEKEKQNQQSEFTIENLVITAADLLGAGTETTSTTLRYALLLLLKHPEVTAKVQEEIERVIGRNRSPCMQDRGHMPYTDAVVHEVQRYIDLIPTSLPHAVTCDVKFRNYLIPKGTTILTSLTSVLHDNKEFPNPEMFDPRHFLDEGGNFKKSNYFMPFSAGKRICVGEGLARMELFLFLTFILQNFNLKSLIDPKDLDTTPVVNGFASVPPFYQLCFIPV
T3 sequence (P11712 whole entry): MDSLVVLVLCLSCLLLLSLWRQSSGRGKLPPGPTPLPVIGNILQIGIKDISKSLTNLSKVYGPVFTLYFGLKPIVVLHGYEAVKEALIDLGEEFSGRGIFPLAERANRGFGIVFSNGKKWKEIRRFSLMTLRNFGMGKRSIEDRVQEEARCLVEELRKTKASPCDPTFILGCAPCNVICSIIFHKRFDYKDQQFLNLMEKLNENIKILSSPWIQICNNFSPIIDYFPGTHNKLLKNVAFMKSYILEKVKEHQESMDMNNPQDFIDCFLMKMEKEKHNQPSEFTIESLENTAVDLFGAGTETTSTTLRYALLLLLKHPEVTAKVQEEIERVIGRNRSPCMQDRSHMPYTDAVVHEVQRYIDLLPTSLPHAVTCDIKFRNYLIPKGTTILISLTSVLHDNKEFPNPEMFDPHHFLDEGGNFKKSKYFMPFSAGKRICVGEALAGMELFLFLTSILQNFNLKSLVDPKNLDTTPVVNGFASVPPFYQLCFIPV
T2 sequence (P10635 whole entry): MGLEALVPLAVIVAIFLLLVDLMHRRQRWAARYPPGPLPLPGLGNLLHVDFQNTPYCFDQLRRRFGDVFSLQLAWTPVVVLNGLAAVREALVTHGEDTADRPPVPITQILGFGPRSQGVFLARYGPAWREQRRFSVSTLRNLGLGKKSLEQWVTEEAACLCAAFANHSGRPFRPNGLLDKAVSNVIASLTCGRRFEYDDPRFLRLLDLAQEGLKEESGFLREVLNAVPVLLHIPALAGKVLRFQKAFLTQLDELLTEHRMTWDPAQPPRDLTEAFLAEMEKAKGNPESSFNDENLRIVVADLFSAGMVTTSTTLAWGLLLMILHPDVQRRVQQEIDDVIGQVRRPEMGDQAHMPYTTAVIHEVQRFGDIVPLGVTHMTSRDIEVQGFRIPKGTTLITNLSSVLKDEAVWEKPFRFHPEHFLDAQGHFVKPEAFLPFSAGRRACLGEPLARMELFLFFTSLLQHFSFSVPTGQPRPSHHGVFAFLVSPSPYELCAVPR
Photinus pyralis (firefly) luciferase, sequence (P08659 whole entry): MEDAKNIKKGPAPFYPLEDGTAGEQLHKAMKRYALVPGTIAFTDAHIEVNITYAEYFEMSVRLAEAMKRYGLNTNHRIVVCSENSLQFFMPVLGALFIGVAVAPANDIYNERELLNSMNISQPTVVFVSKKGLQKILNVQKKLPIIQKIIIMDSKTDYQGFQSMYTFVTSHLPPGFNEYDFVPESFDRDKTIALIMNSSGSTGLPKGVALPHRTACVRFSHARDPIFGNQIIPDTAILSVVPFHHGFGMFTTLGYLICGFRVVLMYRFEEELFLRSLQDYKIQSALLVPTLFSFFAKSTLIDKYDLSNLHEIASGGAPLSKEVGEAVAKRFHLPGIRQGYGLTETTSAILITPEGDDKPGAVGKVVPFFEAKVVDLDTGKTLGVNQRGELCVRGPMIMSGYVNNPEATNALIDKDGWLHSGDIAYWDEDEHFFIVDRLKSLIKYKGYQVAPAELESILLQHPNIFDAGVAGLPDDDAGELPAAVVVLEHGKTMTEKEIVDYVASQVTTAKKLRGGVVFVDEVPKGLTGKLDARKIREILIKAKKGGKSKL

Row | SMILES | IC50 (human CYP2C19 [1]; [10]) [µM] | IC50 (human CYP2D6 [2]; [11]) [µM] | CYP2C9 IC50 (half-maximal inhibitory concentration) (human CYP2C9 [3]) | CYP3A4 IC50 (half-maximal inhibitory concentration) (CYP3A4) | Luciferase IC50 (half-maximal inhibitory concentration) [6] | IC50 (human CYP1A2 [7]; [12]) [µM] | IC50 (human CYP2D6 [2]; CYP2D6 IC50) [µM] | CYP3A4 IC50 (CYP3A4) | Luciferase IC50 [6] | IC50 (human CYP1A2 [7]; CYP1A2 IC50) [µM] | also measured
1 | O=[N+]([O-])c1ccc2ccc3cccc4ccc1c2c34 [1-Nitropyrene] | 14 | 33 | Inactive | Inactive | Inactive | 0.27 | – | – | – | – | CYP1A2 Efficacy (in parenthesis) (human CYP1A2 [4]): 0.27 ± 0.05 (-96 ± 5) %; CYP2C19 Efficacy (in parenthesis) (human CYP2C19 [5]): 14.04 ± 11.88 (-69 ± 19) %; CYP2D6 Efficacy (in parenthesis) (human CYP2D6 [8]): 33 ± 2.23 (-91 ± 22) %
2 | CCCCC(CC)CNCC(CC)CCCC (centres unmarked) [2,2'-Diethylhexylamine] | – | – | – | – | – | – | 0.31 | Inactive | Inactive | 47.4 | IC50 (human CYP2C19 [1]; CYP2C19 IC50): 51.3 µM; CYP2C9 IC50 (human CYP2C9 [3]): Inactive
3 | CCN(CC)CCCN(c1ccccc1)C1Cc2ccccc2C1 [Aprindine hydrochloride] | – | – | – | – | – | – | 0.44 | Inactive | Inactive | 22.2 | IC50 (human CYP2C19 [1]; CYP2C19 IC50): 41.3 µM; CYP2C9 IC50 (human CYP2C9 [3]): Inactive
4 | CN1CC2c3ccccc3Oc3ccc(Cl)cc3C2C1 (centres unmarked) [Asenapine] | – | – | – | – | – | – | 0.09 | Inactive | Inactive | 7.55 | CYP2C9 IC50 (human CYP2C9 [3]): Inactive; CYP2C19 IC50 (human CYP2C19 [5]): Inactive
5 | c1ccc2c(c1)-c1cccc3c1c-2cc1ccccc13 [Benzo(b)fluoranthene] | – | – | – | – | – | – | 30 | Inactive | – | 0.69 | IC50 (human CYP2C19 [1]; CYP2C19 IC50): 10.5 µM; CYP2C9 IC50 (human CYP2C9 [3]): Inactive; IC50 [6]: 5.37 µM
6 | c1ccc2c(c1)c1cccc3ccc4cccc2c4c31 [Benzo(e)pyrene] | – | – | – | – | – | – | 55.4 | Inactive | Inactive | 0.1 | CYP2C9 IC50 (human CYP2C9 [3]): Inactive; CYP2C19 IC50 (human CYP2C19 [5]): Inactive
7 | CN(Cc1cc(Br)cc(Br)c1N)C1CCCCC1 [Bromhexine hydrochloride] | – | – | – | – | – | – | – | Inactive | Inactive | – | IC50 (human CYP2C19 [1]): 4.36 µM; IC50 (human CYP2D6 [2]): 0.01 ± 0.01 µM; IC50 (human CYP2C9 [9]): 19.5 ± 6.96 µM; IC50 (human CYP1A2 [7]): 28.1 ± 9.38 µM
8 | Cc1ccc(Cl)c(OCC(O)CNC(C)(C)C)c1 (centres unmarked) [Bupranolol] | – | 0.98 | Inactive | Inactive | Inactive | 15.5 | – | – | – | – | CYP2C19 IC50 (half-maximal inhibitory concentration) (human CYP2C19 [5]): Inactive
9 | CCCCN(CCCC)CCCOC(=O)c1ccc(N)cc1 [Butacaine] | 38.9 | 0.03 | – | Inactive | Inactive | 22.4 | – | – | – | – | IC50 (human CYP2C9 [9]; [13]): 26.4 µM
10 | CN(Cc1ccc(C(C)(C)C)cc1)Cc1cccc2ccccc12 [Butenafine] | – | – | – | – | – | – | 0.39 | Inactive | Inactive | 24.6 | IC50 (human CYP2C19 [1]; CYP2C19 IC50): 9.91 µM; IC50 (human CYP2C9 [9]; CYP2C9 IC50): 16.3 µM
11 | CC(C(O)c1ccccc1)N(C)C/C=C/c1ccccc1 (centres unmarked) [Cinnamedrine] | – | – | – | Inactive | Inactive | – | – | – | – | – | IC50 (human CYP2C19 [1]): 1.46 µM; IC50 (human CYP2D6 [2]): 0.11 µM; IC50 (human CYP2C9 [9]): 16.1 µM; IC50 (human CYP1A2 [7]): 16.4 µM
12 | OC(c1ccc(Cl)cc1)(c1ccc(Cl)cc1)C(Cl)(Cl)Cl [Dicofol] | 0.29 | 44.8 | – | Inactive | Inactive | 8.5 | – | – | – | – | CYP2C9 Efficacy (in parenthesis) (human CYP2C9 [3]): 4.89 ± 4.11 (-104 ± 9) %; IC50 (human CYP2C9 [9]; [13]): 4.89 µM; CYP1A2 Efficacy (in parenthesis) (human CYP1A2 [4]): 8.5 ± 4.94 (-106 ± 9) %; CYP2C19 Efficacy (in parenthesis) (human CYP2C19 [5]): 0.29 ± 0.44 (-153 ± 1) %; CYP2D6 Efficacy (in parenthesis) (human CYP2D6 [8]): 44.8 ± 22.68 (-69 ± 14) %
13 | CCCCc1cc2ccccc2c(OCCN(C)C)n1 [Dimethisoquin hydrochloride] | – | – | Inactive | Inactive | Inactive | – | – | – | – | – | IC50 (human CYP2C19 [1]): 39.2 ± 6.35 µM; IC50 (human CYP2D6 [2]): 4.36 µM; IC50 (human CYP1A2 [7]): 0.47 ± 0.03 µM
14 | CCN(CC)c1c([N+](=O)[O-])cc(C(F)(F)F)c(N)c1[N+](=O)[O-] [Dinitramine] | 19.3 | 55.8 | – | Inactive | Inactive | 0.3 | – | – | – | – | IC50 (human CYP2C9 [9]; [13]): 74.5 µM
15 | CCc1ccc(C2CCNCC2)cc1 [Enefexine] | – | – | – | – | – | – | – | Inactive | Inactive | – | IC50 (human CYP2D6 [2]): 0.42 µM; CYP2C9 IC50 (human CYP2C9 [3]): Inactive; CYP2C19 IC50 (human CYP2C19 [5]): Inactive; IC50 (human CYP1A2 [7]): 23.2 µM
16 | c1ccc2c(c1)-c1cccc3cccc-2c13 [Fluoranthene] | – | – | – | – | – | – | 21.5 | Inactive | – | 0.73 | IC50 (human CYP2C19 [1]; CYP2C19 IC50): 50.2 µM; IC50 (human CYP2C9 [9]): 67.8 µM; IC50 [6]: 62.1 µM
17 | COc1ccc(-c2coc3cc(O)ccc3c2=O)cc1 [Formononetin] | 62.3 | 51.6 | – | Inactive | – | 14.4 | – | – | – | – | IC50 (human CYP2C9 [9]; [13]): 0.29 µM; IC50 [6]: 3.18 µM
18 | CCN(CC)CCNc1ccc(CO)c2sc3ccccc3c(=O)c12 [Hycanthone] | – | – | – | – | – | – | 3.77 | Inactive | Inactive | 0.58 | CYP2C9 IC50 (human CYP2C9 [3]): Inactive; CYP2C19 IC50 (human CYP2C19 [5]): Inactive
19 | CCn1ccnc1CC1COc2ccccc2O1 (centres unmarked) [Imiloxan] | 4.42 | 0.69 | Inactive | Inactive | Inactive | 25.3 | – | – | – | – | –
20 | CN1[C@@H]2CC[C@H]1C[C@@H](OC(=O)c1cc(Cl)cc(Cl)c1)C2 [MDL 72222] | – | 0.05 | Inactive | Inactive | Inactive | 14.6 | – | – | – | – | CYP2C19 IC50 (half-maximal inhibitory concentration) (human CYP2C19 [5]): Inactive
21 | CCCC(Cn1cncn1)c1ccc(Cl)cc1Cl (centres unmarked) [Penconazole] | 0.14 | 43.5 | – | Inactive | Inactive | 23.6 | – | – | – | – | CYP2C9 Efficacy (in parenthesis) (human CYP2C9 [3]): 5.66 ± 0.65 (-101 ± 4) %; IC50 (human CYP2C9 [9]; [13]): 5.66 µM; CYP1A2 Efficacy (in parenthesis) (human CYP1A2 [4]): 23.57 ± 4.24 (-101 ± 7) %; CYP2C19 Efficacy (in parenthesis) (human CYP2C19 [5]): 0.14 ± 0.02 (-137 ± 5) %; CYP2D6 Efficacy (in parenthesis) (human CYP2D6 [8]): 43.51 ± 17.21 (-88 ± 16) %
22 | CC(COc1ccccc1)N(CCCl)Cc1ccccc1 (centres unmarked) [Phenoxybenzamine hydrochloride] | 2.44 | 0.38 | – | Inactive | Inactive | 65.8 | – | – | – | – | IC50 (human CYP2C9 [9]; [13]): 22.8 µM
23 | COc1ccc(CN(CCN(C)C)c2ccccn2)cc1 [Pyrilamine maleate] | 15.8 | 0.18 | Inactive | Inactive | Inactive | 62.7 | – | – | – | – | –
24 | CCN(CC)CCCC(C)Nc1c2ccc(Cl)cc2nc2ccc(OC)cc12 (centres unmarked) [Quinacrine] | – | – | – | – | – | – | 0.18 | Inactive | Inactive | 2.2 | CYP2C9 IC50 (human CYP2C9 [3]): Inactive; CYP2C19 IC50 (human CYP2C19 [5]): Inactive
25 | COc1ccc(CN(CCN(C)C)c2ncccn2)cc1 [Thonzylamine hydrochloride] | 15.7 | 0.7 | Inactive | Inactive | Inactive | 18.5 | – | – | – | – | –
26 | CN(C)CCCN1c2ccccc2Sc2ccc(C(F)(F)F)cc21 [Triflupromazine hydrochloride] | 7.62 | 0.55 | Inactive | Inactive | Inactive | 3.52 | – | – | – | – | –
27 | CN(C)CCN(Cc1ccccc1)c1ccccn1 [Tripelennamine citrate] | 35.7 | 0.2 | Inactive | Inactive | Inactive | 26.5 | – | – | – | – | –
28 | CS(=O)(=O)c1ccc(-c2cn3ccccc3n2)cc1 [Zolimidine] | – | – | – | – | – | – | 24.2 | Inactive | – | 0.7 | IC50 (human CYP2C19 [1]; CYP2C19 IC50): 25.7 µM; IC50 (human CYP2C9 [9]; CYP2C9 IC50): 24.1 µM; IC50 [6]: 6.95 µM
